From patent US9974721B2, “Cosmetic composition for lightening skin and hair” (Symrise AG, priority 2013, dated 2018)
Several values for one entry are separate records, joined by “and”; a condition that tells them apart may be missing. Identical values can stand only once.

Columns and labels:
[1] = tested on: B16V mouse melanoma cells; test: Depigmentation effect on melanoma cell cultures (inhibition of pigmentation); assay type: cell-based; details: for IC50: Mus musculus, B16V cells, 0.3 mM tyrosine + 10 nM α-MSH, 96 h, absorption at 400 nm
Procedure: (§1) B16V mouse melanoma cells are disseminated in a 96-well micro-titre plate in a concentration of 7.5×10^3 cells/well. After cultivation for 24 h at 37° C. and 5% CO2 in RPMI medium, enriched with 10% foetal calf serum, various concentrations of the test substances and 0.3 mM tyrosine and 10 nM α-MSH (α-melanocyte stimulating hormone) are added and incubated for a further 96 h. The maximum concentration of the test substances used corresponds to 0.1 times the value of the IC20 value of the cytotoxicity assay. Only tyrosine and α-MSH are added to the controls. After incubation, sodium hydroxide solution (final concentrations: 1 M) is added to the culture medium and the absorption (A) is measured after 3 h at 400 nm.
(§2) The inhibition of pigmentation in the presence of the test compounds was calculated using the following equation: Inhibition of pigmentation (%)=100−[(Atest compound/Acontrol)×100] wherein Atest compound=absorption of the wells with test substance and with cells Acontrol=absorption of the wells without test substance, but with cells
From the inhibition of pigmentation (%) in a series of dilutions of test compounds, the IC50 for each test compound is calculated. This is the concentration of a test compound at which pigmentation is inhibited by 50%.

[2] = Incorporation into commonly used cosmetic formulations / crystallisation; assay type: physicochemical; details: for incorporation into commonly used cosmetic formulations: own experiments
Source text: The analogues compound manool was already described as skin lightening active (JP 2006 137705 (Pola) and JP 06072855 (Pola)).

[3] = biological target: T1, transient receptor potential cation channel-6 (TRPC6) (Homo sapiens, UniProt Q9Y210); details: WO 2013 021038 A1; cited from earlier work
T1 sequence (Q9Y210 1-931): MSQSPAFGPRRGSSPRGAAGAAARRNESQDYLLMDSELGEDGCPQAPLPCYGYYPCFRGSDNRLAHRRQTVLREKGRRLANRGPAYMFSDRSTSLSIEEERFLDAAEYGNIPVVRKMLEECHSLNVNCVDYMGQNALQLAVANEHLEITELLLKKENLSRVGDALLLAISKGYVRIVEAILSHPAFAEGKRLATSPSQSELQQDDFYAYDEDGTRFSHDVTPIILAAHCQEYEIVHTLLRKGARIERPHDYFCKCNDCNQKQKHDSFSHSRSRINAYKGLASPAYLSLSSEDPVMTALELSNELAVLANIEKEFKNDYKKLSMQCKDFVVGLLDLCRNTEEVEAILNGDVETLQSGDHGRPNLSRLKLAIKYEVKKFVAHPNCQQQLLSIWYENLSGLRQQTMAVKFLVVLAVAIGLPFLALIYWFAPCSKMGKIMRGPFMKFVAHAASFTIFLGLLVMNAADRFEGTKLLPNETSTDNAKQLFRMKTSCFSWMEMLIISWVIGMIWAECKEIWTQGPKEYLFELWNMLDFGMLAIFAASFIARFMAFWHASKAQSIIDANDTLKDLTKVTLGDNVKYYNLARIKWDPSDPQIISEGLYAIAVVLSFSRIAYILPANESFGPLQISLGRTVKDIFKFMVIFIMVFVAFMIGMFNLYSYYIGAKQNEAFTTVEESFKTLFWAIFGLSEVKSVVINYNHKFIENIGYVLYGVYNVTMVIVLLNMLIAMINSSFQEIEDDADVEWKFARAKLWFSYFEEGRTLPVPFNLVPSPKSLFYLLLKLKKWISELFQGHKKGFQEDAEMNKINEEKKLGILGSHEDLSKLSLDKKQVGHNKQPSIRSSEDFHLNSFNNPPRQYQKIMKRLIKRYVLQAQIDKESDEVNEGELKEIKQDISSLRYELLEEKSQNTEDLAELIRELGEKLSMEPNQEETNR

[4] = biological target: plasminogen activator inhibitor-1 (PAI-1) (Homo sapiens, UniProt P05121); details: US 2010 0137194; cited from earlier work
Human skin = test: Depigmentation effect on ex vivo skin (melanin granules, Fontana-Masson, image analysis); assay type: cell-based; details: 0.1 wt.% in O/W emulsion, topical, 6 days
Procedure: Human skin, originating from plastic surgery, was cut into 4×4×3 mm pieces (length×width×height) and placed in culture at the air-liquid interface on a sterilized cotton pad soaked with 5 ml of customized DMEM (Dulbecco's Modified Eagle Medium). Assays were started 24 h after sample acclimatization at 37° C., 5% CO2. O/W emulsions (as described in more detail below) without (=control) and with the test compounds, respectively, were applied topically and incubated for 6 days. Histological sections were prepared and melanin granules stained by Fontana-Masson technique. The granules were quantified by image analysis. The results are compiled in Tables 3.1 and 3.2.
Phases A and B are heated to 70° C. separately. Pemulen TR1 as well as Ultrez-21 are dispersed in phase B when heated to 70° C. Phase B/C is added to phase A by mixing with an Ultra Turrax, followed by emulsifying. Phase D is slowly added to phase A/B/C using a paddle mixer and a pH 5.5-6 is adjusted. The formulation is cooled down while mixing with a paddle mixer. Phase E is added to the mixture of phase A-D.

[5] = tested on: B16V mouse melanoma cells; test: Synergistic in vitro melanin inhibition (procedure of Example 1, Kull synergy index); assay type: cell-based; details: experiments 1 and 2, mixture 75% Larixol / 25% SymWhite 377
Procedure: as §1, §2
From the inhibition of pigmentation (%) in a series of dilutions of test compounds, the IC50 for each test compound is calculated. […]
The Synergy Index (SI)^1 is calculated according to Kull's equation as follows: ^1 The calculation of the synergy index (SI-value) was carried out on the basis of following literature: D. C. […]

Sequence of plasminogen activator inhibitor-1 (PAI-1) (P05121 24-402, species assumed): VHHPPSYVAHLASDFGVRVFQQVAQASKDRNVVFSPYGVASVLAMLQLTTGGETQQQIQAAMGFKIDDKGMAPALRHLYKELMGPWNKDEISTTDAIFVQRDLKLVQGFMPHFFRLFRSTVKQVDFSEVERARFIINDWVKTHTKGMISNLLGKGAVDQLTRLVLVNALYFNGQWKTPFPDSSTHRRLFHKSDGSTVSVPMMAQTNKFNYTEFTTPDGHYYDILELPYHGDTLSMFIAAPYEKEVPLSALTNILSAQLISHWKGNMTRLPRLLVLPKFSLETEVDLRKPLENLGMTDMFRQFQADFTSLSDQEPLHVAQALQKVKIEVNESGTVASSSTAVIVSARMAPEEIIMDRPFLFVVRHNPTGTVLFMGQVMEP

IC50 [1] [µM]	Melanin inhibition IC50 [5]	SMILES	incorporation into commonly used cosmetic formulations [2]	TRPC6 antagonism [3]	further results
67		OC[C@H]1O[C@@H](Oc2ccc(O)cc2)[C@H](O)[C@@H](O)[C@@H]1O [beta-Arbutin, reference compound]			
3.9	0.00011%	C=C[C@@](C)(O)CC[C@H]1C(=C)C[C@H](O)[C@H]2C(C)(C)CCC[C@]12C [Larixol, (1S,4S,4aR,8aS)-4-[(3S)-3-Hydroxy-3-methylpent-4-enyl]-4a,8,8-trimethyl-3-methylenedecahydronaphthalen-1-ol]	can easily be incorporated	TRPC6 antagonists	inhibitory activity towards melanin formation in melanocytes ([1]; statement in words): strong inhibitory activity; PAI-1 inhibition (screening) [4]: PAI-1 inhibitor; Melanin score vs. Control (Human skin): −41%
		C=CC(C)(O)CCC1C(=C)CC(OC(C)=O)C2C(C)(C)CCCC12C (stereo not shown) [larixyl acetate]		TRPC6 antagonists	
	0.000021% and 0.000034%	CC(c1ccccc1)c1ccc(O)cc1O (stereo not shown) [SymWhite ® 377, 4-(1-phenylethyl)1,3-dihydroxybenzene]			
		C=CC(C)(CCC1C(=C)CC(OC(C)=O)C2C(C)(C)CCCC12C)OC(C)=O (stereo not shown) [larixyl diacetate]		TRPC6 antagonists	
		C=C[C@](C)(O)CC[C@H]1C(=C)CC[C@H]2C(C)(C)CCC[C@]12C [manool]	difficult to incorporate		crystallisation in formulation ([2]; formulation with manool, after a few days): crystallisation of manool after a few days
